Assay results from patent US12144786B2 (priority 2020, dated 2024).
Ends that are not written are not given here.

Key:
[1] = test system: healthy volunteers; conditions: 80-minute infusion of 0.4 or 0.8 mg/kg, 3 days later; cited from earlier work
[2] = test system: patients with eating disorders; conditions: 10-hour infusions of 20 mg/hour; cited from earlier work
[3] = up to 4 doses of 0.1-0.5 mg/kg IV over 2 weeks, 8-month follow-up; cited from earlier work
[4] = test system: patients; conditions: usually; rarely longer than 2 hours; cited from earlier work
[5] = test system: chronic anorexia nervosa; test: Case study: ketogenic diet followed by IV ketamine infusions in a patient with chronic anorexia nervosa; type: in vivo, human
[6] = 10 4-hour infusions of up to 20 mg/hour; cited from earlier work
[7] = test system: patients treated for depression; conditions: 6630 patients, six or more repeated parenteral infusions for depression; cited from earlier work
[8] = in vivo; cited from earlier work
[9] = in vivo; cited from earlier work; remark: listed apart in the source
[10] = test system: animal models of brain injury and stroke; conditions: cited from earlier work
[11] = in vivo; cited from earlier work; remark: listed apart in the source
[12] = test system: rodent models of depression; conditions: cited from earlier work
[13] = in vivo, cited from earlier work

## CNC1(c2ccccc2Cl)CCCCC1=O (racemic) [ketamine, (RS)-2-(2-chlorophenyl)-2-(methylamino)cyclohexanone]
[1]
  residual effects: does not result in any residual effects
[2]
  side effects (headache, nausea, sedation, revival of distant memories): no longer occurred after the first infusion or were no longer seen as unpleasant
[3]
  adverse events: no adverse events
[4]
  duration of dissociative symptoms: less than 60 minutes
[5]; 40-minute IV infusion 0.75 mg/kg (42.68 mg) after 3 months on ketogenic diet, moderate ketosis for 14 days
  onset of effect on anorexic thoughts (AN voice) after first infusion: Within one hour, they felt the AN voice was weakening
[5]; four infusions over 15 days (0.75, 1.0, 1.1, 1.2 mg/kg) on ketogenic diet
  anorexia symptoms by the end of treatment: they no longer felt anorexic any more
[5]; four infusions over 15 days on ketogenic diet
  compulsive exercise by the end of treatment: They could exercise and stop exercising at their own wish
[5]; throughout the treatment (duration 15 days) and months after
  BMI: ~20.8
[6]
  patients experiencing restlessness, headaches, or significant heart rate increases: 7-13%
[7]
  patients with a side effect that led to discontinuation of treatment: 0.7%

## N[C@@]1(c2ccccc2Cl)CCC[C@@H](O)C1=O [(2R,6R)-HNK]
[8]
  hypnotic effect: non-hypnotic
  role in antidepressant effects of ketamine: essential for the antidepressant effects of ketamine

## CN[C@@]1(c2ccccc2Cl)CCCCC1=O [(R)-ketamine]
[9]
  antidepressant effects and psychotomimetic side effects: rapid-onset and sustained antidepressant effects without psychotomimetic side effects

## C[C@@H]([C@@H](O)c1ccc(O)cc1)N1CCC(O)(c2ccccc2)CC1 [CP-101,606]
[10]
  protection: protective

## Cc1ncc2n1-c1ccc(Cl)cc1C(c1ccccc1F)=NC2 [Midazolam]
[11]
  half-life (t½): 2.5 h

## C[C@@H](CN1CCC(Cc2ccccc2)CC1)[C@@H](O)c1ccc(O)cc1 [Ro 25-6981]
[12]
  antidepressant actions: rapid antidepressant actions

## Thr-Pro-Pro-Thr-NH2 (TPPT-NH2) [Rapastinel, amidated tetrapeptide, NMDA receptor glycine site partial agonist]
[13]; po
  oral activity: not active orally
[13]
  blood brain barrier crossing: rapidly crosses the blood brain barrier
